# Assay: gradient 5% acetonitrile 3 min, to 50% in 2 min, to 85% in 15 min, held 3 min, 100 µL/min
# Settings: column: Zorbax Extend-C18 2.1 x 50 mm; eluents: water / acetonitrile, 0.1% formic acid
# Outline: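 Each retention time is based on an adduct peak selected computationally and verified by manual inspection. Measurements used HPLC–quadrupole time-of-flight mass spectrometry in positive and negative ionization mode on mixtures of ~100 pure standards. Chromatography ran on a Zorbax Extend-C18 column (2.1 × 50 mm, 1.8 μm) at 100 μL/min with water and acetonitrile, each containing 0.1% formic acid, and dead and dwell volumes of 40 μL and 900 μL.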
row,Structure (SMILES),RP-LC retention time
1,COC(=O)N1CCc2ccccc2C1C(=O)Nc1ccccc1C(F)(F)F (stereo not drawn),877 s
2,CCNC(=O)c1n[nH]c2c1CN(C(=O)c1cccc(Br)c1)CC2,678 s
3,O=S(=O)(c1c[nH]c2ncccc12)N1CCN(c2ccccc2)CC1,805 s
4,COc1ccc(-c2csc(Cc3nc(-c4ccc(Cl)cc4)no3)n2)cc1,1290 s
5,CCCN(C)CC1(O)CCC2(CCN(C(=O)c3ccc(Cl)s3)CC2)CC1,647 s
6,COc1ccc(-c2cn3c(CC(=O)NCc4cccs4)csc3n2)cc1OC,678 s
7,CCSc1nc2nc3c(cn2n1)C(=O)CCC3,723 s
8,COCCn1cc(CCNC(=O)Nc2ccccc2Br)c2cccnc21,763 s
9,O=S(=O)(Nc1ccccc1)c1cccnc1Nc1ccc(F)cc1,1020 s
10,CNc1nc(Nc2ccccc2Cl)nc2ccccc12,683 s
11,Cc1cc(C)n(-c2ccnc(N3CCC(C(=O)NCCC(C)C)CC3)n2)n1,836 s
12,Cc1sc2cc(C(=O)NC(C)C)[nH]c2c1CN1CCCCC1,643 s
13,CCCN(CCC)C(=O)c1cc(NC(=O)CC)cnc1N1CCNCC1,588 s
14,CC1CC(=O)c2cnc(N3CCN(c4ncccn4)CC3)nc2C1 (stereo not drawn),798 s
15,O=C(NCCCN1CCOCC1)C1CCCN(c2cnc3nccnc3c2)C1 (stereo not drawn),565 s
16,O=C(NCCc1ccccn1)C1CC(=O)N(c2n[nH]c3cc(Br)ccc23)C1 (stereo not drawn),600 s
17,COc1ccc(-c2nc(NCCCN3CCOCC3)c3ccccc3n2)cc1,557 s
18,O=C(Nc1ccc(F)cc1F)Nc1c[nH]c2ccccc12,755 s
19,COc1ccc(OC)c(S(=O)(=O)N2CC(=O)N(C3CCCC3)C3(CCCCC3)C2)c1,1090 s
20,COc1ccc(-c2cc(N3CCN(C(=O)NCCC(C)C)CC3)ncn2)cc1,670 s
21,Cc1cc(OCC(=O)N[C@H](C(=O)O)C(C)C)c2c3c(c(=O)oc2c1)CCC3,788 s
22,Cc1ccc(-c2noc(-c3ccccc3S(=O)(=O)N3CCC(C)CC3)n2)cc1,1280 s
23,CC(C)(C)c1ccc2c(c1)N(S(=O)(=O)c1ccccc1)CC(C(=O)NC1CC1)O2 (stereo not drawn),1080 s

row,Structure (SMILES),RP-LC retention time
1,Cc1c(C(=O)NCCCN2CCC(C)CC2)sc2ncn(CC(=O)N3CCCCC3C)c(=O)c12 (stereo not drawn),628 s
2,Cc1ccc(F)cc1NC(=O)Cn1cnc2nc(N3CCCC(C(=O)NC4CC4)C3)sc2c1=O (stereo not drawn),686 s
3,COc1ccc(NS(=O)(=O)c2cn(C(C)C)c3ncccc23)cc1Cl,908 s
4,Cc1nc(N)sc1-c1ccnc(Nc2ccc(N3CCOCC3)cc2)n1,624 s
5,O=C(c1cccs1)N1CCC(c2nncn2-c2ccccc2)CC1,626 s
6,O=S(=O)(c1ccccc1Cl)N1CCN(c2ccc(Nc3ccccn3)nn2)CC1,593 s
7,O=C(C1=CN(c2ccc3c(c2)OCCO3)c2cc(F)ccc2S1(=O)=O)N1CCOCC1,750 s
8,Cc1ccc(S(=O)(=O)N2C[C@H](F)C[C@@H]2C(=O)N2CCOCC2)cc1Cl,750 s
9,COc1cccc(-c2nc(-c3ccc(S(=O)(=O)N4CCCC4)cc3)no2)c1,1180 s
10,COc1cccc(-c2nnc(NC(=O)c3ccccc3Br)o2)c1,734 s
11,Fc1ccc(-c2nnc(Cc3nc(-c4ccccc4)no3)o2)cc1,992 s
12,COc1cccc(NC(=O)C2CCN(c3nc4ccc(-c5cncnc5)nc4s3)CC2)c1,736 s
13,CC1CCCN(c2ncc(C(=O)NCc3ccccc3)c(N)n2)C1 (stereo not drawn),597 s
14,O=C(c1cccnc1)N1CCCn2nc(-c3ccc(Cl)cc3)cc2C1,739 s
15,CCCOc1ccc(-c2cn3ccccc3n2)cc1[N+](=O)[O-],681 s
16,CCn1nc(-c2ccc(C)c(S(=O)(=O)N3CCC(C(N)=O)CC3)c2)c2c(c1=O)CCCC2,718 s
17,O=c1ccc(-c2ccc(F)cc2)nn1CCc1nc(-c2ccc(F)cc2)no1,712 s
18,CCCN1CCCCc2cc(C(=O)NC3CCS(=O)(=O)C3)sc21 (stereo not drawn),884 s
19,Cc1nc(N2CCCCC2)cc(N2CCN(C(=O)c3ccc(Br)o3)CC2)n1,689 s
20,O=C(NC1CCCC1)C1CCc2sc(C(=O)N3CCCCCC3)cc2C1 (stereo not drawn),900 s
21,Brc1ccc(-c2ccc(CNCc3ccccn3)o2)cc1,703 s
22,Cc1ccccc1-c1nc2nc(C)c(CC(=O)N3CCCC3)c(C)n2n1,735 s
23,CCc1cc(=O)n(CC(=O)NC2CCCC2)c(N)n1,574 s

# Second part, the compound after the results:
row,RP-LC retention time,Structure (SMILES)
1,779 s,CCC(=O)N1CCc2cc(N3CC(C(=O)Nc4ccc(OC)c(Cl)c4)CC3=O)ccc21 (stereo not drawn)
2,1070 s,CCN1C(=O)c2cc(S(=O)(=O)Nc3ccc(Cl)cc3F)ccc2Oc2cccnc21
3,1040 s,Cc1ccc(CNC(=O)C2(C)CCCN(C(=O)Nc3ccc(Br)cc3)C2)cc1 (stereo not drawn)
4,683 s,COc1cccc(Nc2c(C(N)=O)cnc3c(C)cc(S(=O)(=O)c4cccc(C(=O)N(C)C)c4)cc23)c1
5,1030 s,O=C(Cn1nc(N2CCSCC2)c2ccccc2c1=O)Nc1cccc(Br)c1
6,916 s,Cc1ccc(C)c(NC(=O)c2cc(C)nn2-c2ccccc2)c1
7,661 s,CCc1nn2c(CNC(=O)c3ccc(F)c(F)c3)c(-c3ccccc3)nc2s1
8,1040 s,CCc1nn2c(CNS(=O)(=O)Cc3ccc(C)c(C)c3)c(-c3ccccc3)nc2s1
9,1310 s,Cc1ccc(C)c(OCc2nc(CC(=O)Nc3nc(-c4ccc(F)cc4)c(C)s3)cs2)c1
10,1110 s,Cc1cc(C)c(-c2csc(NC(=O)c3ccc(S(=O)(=O)N4CCOCC4)cc3)n2)c(C)c1
11,759 s,Cc1ccc(C(=O)CC2(O)C(=O)Nc3ccccc32)c(C)c1 (stereo not drawn)
12,1090 s,O=c1c2sccc2n(Cc2nc(-c3ccc(Cl)c(F)c3)no2)c(=O)n1-c1cccc(F)c1
13,604 s,Cn1c(CNC(=O)c2ccc3c(c2)N(S(C)(=O)=O)CC3)nc2ccccc21
14,1360 s,CCOc1ccccc1NC(=O)C1CCCN(c2nc3c(s2)c(C)nn3-c2ccc(C)cc2)C1 (stereo not drawn)
15,773 s,CC(=O)Nc1ccc(C2(C(=O)NCc3cccc(C)c3)CCC2)cc1
16,813 s,Cn1cc(CC(=O)NCc2cc(-c3ccc4c(c3)OCO4)on2)c2ccccc21
17,681 s,O=C(CCc1c(-c2ccccc2)nc2ccccn12)NCc1cccc(Cl)c1
18,800 s,CN(c1ccccc1)c1nc(=O)n(CC(=O)Nc2ccc3c(c2)OCO3)c2ccccc12
19,762 s,COc1ccccc1-c1noc(C2CCCN2C(=O)Nc2ccc3c(c2)OCCO3)n1 (stereo not drawn)
20,1040 s,CCC(c1cccs1)N1C(=O)[C@H]2CN(S(=O)(=O)c3cccc(C)c3)C[C@H]2C1=O (stereo partly drawn)
21,645 s,CCc1ccc(NC(=O)Cn2c(=O)n(-c3cccc(C)c3)c(=O)c3c2cc(C)n3C)cc1

row,RP-LC retention time,Structure (SMILES)
1,1280 s,CCN(C(=O)c1ccco1)c1nc(-c2ccc(C)cc2)cs1
2,658 s,Cc1scc2nc(C(=O)Nc3ccccc3)nc(N(C)C)c12
3,706 s,Cc1nnc(N2CCCC(C(=O)NCCc3c[nH]c4ccccc34)C2)c2nn(-c3ccccc3)c(C)c12 (stereo not drawn)
4,780 s,Cc1ccc(Cn2c(C)c3cnn(CC(=O)NCC4CCCO4)c(=O)c3c2C)cc1 (stereo not drawn)
5,841 s,O=C(Cc1ccc(Cl)cc1)N1CCN(c2cc(-c3ccccc3)[nH]n2)CC1
6,671 s,Cn1c(N2CCCC(C(=O)NCc3ccc4c(c3)OCO4)C2)cc(=O)n(C)c1=O (stereo not drawn)
7,921 s,Cc1cccc(N2CCN(C(=O)Cc3nnc(-c4sccc4C)o3)CC2)c1
8,839 s,O=C(Cn1nc(N2CCOCC2)c2ccccc2c1=O)Nc1ccc(F)cc1
9,751 s,Cc1ccc(Nc2c(-c3ccc(N4CCOCC4)cc3)nc3ncccn23)cc1Cl
10,619 s,Cc1ccc(CS(=O)Cc2ccc(C(=O)N3CCN(c4ccccn4)CC3)o2)cc1 (stereo not drawn)
11,1100 s,COc1ccc(-c2nc(Cn3c(=O)c4c(C)cc(C)nc4n(C)c3=O)c(C)o2)cc1OC
12,753 s,O=C(Nc1c(F)cccc1F)N1CC(c2nc(Cc3ccccc3)no2)C1
13,891 s,COc1cccc(N2CCN(c3cc(SCC(=O)NCc4ccccc4)ncn3)CC2)c1
14,1130 s,CCOc1ccccc1-c1nc(C2CC(=O)N(c3ccc(CC)cc3)C2)no1 (stereo not drawn)
15,643 s,COc1ccc(C(=O)Oc2cc(C)nn2-c2nc3ccccc3[nH]2)cc1
16,699 s,CCN(CC)C(=O)c1ccc(-c2nnc3ccc(NC(=O)C4CC4)cn23)cc1
17,1310 s,Cc1cc(Cl)ccc1OCC(=O)Nc1nc(-c2cccc3ccccc23)cs1
18,896 s,Cc1ccc2c(c1)N(Cc1ccc(Cl)cc1)N=C(C(=O)N1CCOCC1)S2(=O)=O
19,738 s,Cc1ccc(Nc2c(-c3ccccc3O)nc3ncccn23)cc1Cl
20,846 s,CCc1cc(=O)n(CC(=O)Nc2cccc(SC)c2)c(N2CCOCC2)n1
21,897 s,CCc1noc(NC(C)=O)c1-c1ccc(C)c(S(=O)(=O)Nc2ccc(C)cc2C)c1
